Entries after “also recorded” stand apart in the source; their conditions may differ.
How the values were obtained:
[1] = tested on: BALB/c cardiac allograft in B6/129 wild-type mice; test: Heterotopic cardiac allograft survival, BALB/c donors into B6/129 wild-type recipients; type: in vivo, mouse; settings: with CD154 mAb/DST, rapamycin 0.2 mg/kg/d i.p., cyclosporin A 10 mg/kg/d i.p., methylprednisolone 1 mg/kg i.p., PS-519 1 mg/kg/d i.p., p<0.001
Procedure: Heterotopic cardiac allografting was performed with anastomoses to the abdominal aorta and vena cava (Hancock et al., 1998, Nature Medicine 4:1392-1396), using BALB/c donors and B6/129 wild-type or […] mice as recipients. Recipients were treated with hamster IgG or hamster anti-mouse (CD40L mAb; 250 μg, administered intravenously) plus DST (5×10^6 splenic mononuclear cells) at the time of transplantation (Hancock et al., 1998, Nature Medicine 4:1392-1396).
Heterotopic cardiac allografting was performed with anastomoses to the abdominal aorta and vena cava (Hancock, W. W. et al., 1998, Nature Medicine 4:1392-1396), using BALB/c donors and B6/129 wild-type or NF-κB/p50 KO mice as recipients (n=6/group). Recipients were treated with hamster IgG or hamster anti-mouse CD154 mAb (250 μg, i.v.) plus DST (“donor specific transfusion”; 5×10^6 splenic mononuclear cells) at the time of transplantation (Hancock, W. W. et al., 1998, Nature Medicine 4:1392-1396). […] Graft survival was monitored by daily palpation, and rejection was confirmed by laparotomy and histologic evaluation.
Heterotopic cardiac allografting was performed with anastomoses to the abdominal aorta and vena cava, using BALB/c donors and B6/129 wild-type or Stat-6 KO mice as recipients (n=6/group). […] Graft survival was monitored by daily palpation and rejection was confirmed by laparotomy and histologic evaluation.

[2] = tested on: CD154 expression by CD3 mAb-activated CD4+ splenic T cells; test: Activation-induced CD154 expression by CD4+ T cells, dual color flow cytometry; type: cell-based, mouse; settings: 7 hr, plate-bound CD3 mAb; for effect on activation-induced CD154 expression, in words: drug concentrations as b343 (10 μM lactacystin, 10 μM MG-273); for suppression (inhibition) of activation-induced CD154 expression: 125 ng/ml cyclosporin A, 20 ng/ml rapamycin, 100 μg/ml methylprednisolone, 1 μM mycophenolate mofetil, three experiments
Procedure: Six-well plates (Costar) were pre-coated overnight with 1 μg/ml of […] anti-mouse CD3 mAb (2C11). After washing with media (RPMI supplemented with 10% fetal bovine serum, 50 U/ml penicillin, 50 μg/ml streptomycin, 2 mM glutamine and 50 μM 2-mercaptoethanol) one ml of media containing 2× final drug concentration was added to each well. After testing of a range of concentrations of each agent, the optimal final physiologic drug concentrations for the data to be reported were 125 ng/ml cyclosporin A, 20 ng/ml rapamycin. 100 μg/ml methylprednisolone, 1 μM mycophenolate mofetil, 10 μm lactacystin and 10 μM MG-273. Cells were obtained from mechanically disrupted spleens and, after collection by centrifugation and washing once with media, one ml aliquots containing two million viable splenocytes were added to each well. Cultures were incubated at 37° C. in 5% CO2 for 7 hr. and were then diluted two-fold with chilled media containing 0.1% sodium azide (FACS media). Cells were collected by centrifugation at 4° C., resuspended in FACS media containing 1 μg Fc Block (PharMingen) and incubated on ice for 15 min. Samples were then split and either a mixture of 1 μg each of FITC-conjugated CD4-specific mAb and PE-conjugated control hamster IgG mAb or FITC-conjugated CD4-specific mAb and PE-conjugated CD154-specific mAb were added. After a 30 min incubation on ice, cells were washed twice and analyzed on a Becton Dickinson FACScan using Cell Quest software. Viable CD4+ lymphocytes were gated using a combination of forward/side scatter and CD4 staining.

SMILES	effect of concomitant agent on the effects (efficacy) of CD154 mAb therapy on allograft survival ([1]; listed as lactacystin-derived (LC) proteasome inhibitor)	effect of concomitant agent on the effects (efficacy) of CD154 mAb therapy on allograft survival ([1]; listed as proteasome inhibitor)	effect on activation-induced CD154 expression, in words [2]	suppression (inhibition) of activation-induced CD154 expression [2]
CCC[C@H]1C(=O)N[C@@]2([C@@H](O)C(C)C)C(=O)O[C@@H]12 [PS-519]	significantly impaired	blocked		
CC(C)C[C@H](NC(=O)[C@H](Cc1cccc2ccccc12)NC(=O)N1CCOCC1)B(O)O [MG-273]			significantly decreased; also recorded: significantly blocked	
COc1c(C)c2c(c(O)c1C/C=C(\C)CCC(=O)OCCN1CCOCC1)C(=O)OC2 [mycophenolate mofetil]			complete lack of effect	< 10%
C[C@H]1C[C@@H]2[C@H]([C@@H](O)C[C@@]3(C)[C@H]2CC[C@]3(O)C(=O)CO)[C@@]2(C)C=CC(=O)C=C12 [methylprednisolone, 6α-methylprednisolone]				> 90%
CO[C@H]1C[C@@H]2CC[C@@H](C)[C@@](O)(O2)C(=O)C(=O)N2CCCC[C@H]2C(=O)O[C@H]([C@H](C)C[C@@H]2CC[C@@H](O)[C@H](OC)C2)CC(=O)[C@H](C)/C=C(\C)[C@@H](O)[C@@H](OC)C(=O)[C@H](C)C[C@H](C)/C=C/C=C/C=C/1C [rapamycin]				< 20%

From patent US6534277B1, “Method for identifying a compound to be tested for an ability to reduce immune rejection by determining Stat4 and Stat6 proteins” (Millennium Pharmaceuticals, Inc., priority 2000, dated 2003)
